Reference: US10253060B2, “Terpenoid derivatives” (Daiichi Sankyo Company, Limited, priority 2013, dated 2019)

Columns and labels:
ARPE-19 cells = experiment: Cytotoxicity, LDH-Cytotoxic Test in ARPE-19 cells; assay type: cell-based, human; details: 10 μM, approx. 16 hours, 3 wells
Protocol: ARPE-19 cells (human retinal pigment epithelium cell line, ATCC, catalog No. CRL-2302) were cultured (5% CO2, 37° C.). A DMEM/F12 (Life Technologies Japan Ltd., catalog No. 11330-032) mixed medium containing 10% inactivated FBS was used. The medium contained 100 units/mL (final concentration) penicillin and 100 μg/[…] (final concentration) streptomycin.
The ARPE-19 cells were seeded at 5000 cells/well in a 96-well plate. The amount of the medium was 50 μL. Approximately 3 hours later, 50 μL of a medium containing CDDO-Me or each of terpenoid derivatives A to H was added thereto, followed by culture for approximately 16 hours. Then, cytotoxicity was evaluated using LDH-Cytotoxic Test (Wako Pure Chemical Industries, Ltd., catalog No. 299-50601). The evaluation method followed the attached document. Each group consisted of 3 wells and was indicated as cytotoxicity at the concentration of 10 μM. The means thereof were 43% for CDDO-Me, 2% for terpenoid derivative A, 2% for terpenoid derivative B, 2% for terpenoid derivative C, 1% for terpenoid derivative D, 2% for terpenoid derivative E, 3% for terpenoid derivative F, 3% for terpenoid derivative G, and 1% for terpenoid derivative H. Terpenoid derivatives A to H were low in cytotoxicity as compared with CDDO-Me.

NQO1 = NQO1 assay in Hepa1c1c7 cells; assay type: cell-based, mouse; details: approx. 48 hours, mean of 3 wells
Protocol: Hepa1c1c7 cells (mouse hepatic cell line, ATCC, catalog No. CRL-2026) were cultured (5% CO2, 37° C.). A DMEM (Life Technologies Japan Ltd., catalog No. 11965-092) medium also containing 10% inactivated FBS was used. The medium contained 100 units/mL (final concentration) penicillin and 100 μg/[…] (final concentration) streptomycin. The NQO1 assay was conducted according to previous reports (Anal Biochem 1998; 169: 328-; and Methods Enzymol 2004; 382: 243-).
The Hepa1c1c7 cells were seeded at 10000 cells/well in a 96-well plate. The amount of the medium was 100 μL. Approximately 24 hours later, the medium was replaced with a medium containing CDDO-Me or each of terpenoid derivatives A to G, followed by further culture for approximately 48 hours. A lysis solution (a solution containing 2 mM EDTA and 0.8% digitonin), a reaction solution (a solution containing 0.025 M of tris-HCl, 0.067% of albumin, 0.01% of Tween-20, 2 U/mL of glucose-6-phosphate dehydrogenase, 5 μM of flavin adenine dinucleotide, 1 […], 30 μM of nicotinamide adenine dinucleotide phosphate, 0.03% of 3-(4,5-dimethyl-2-thiazolyl)-2,5-diphenyltetrazolium bromide (MTT), and 50 μM of menadione), and a stop solution (a solution containing 0.3 mM dicumarol and 5 mM potassium dihydrogen phosphate, pH 7.4) were prepared. After removal of the medium, 50 μL of the lysis solution was added thereto, and the mixture was left standing at 37° C. for 10 minutes. The reaction mixture was further shaken at room temperature for 10 minutes.
Two hundred μL of the solution was added thereto, and the mixture was left standing at room temperature for 5 minutes. Fifty μL of the stop solution was added thereto, and the absorbance at 490 nm was measured.
The test results were analyzed using Prism (GraphPad Software, Inc., Ver. 5) to calculate the CD value of the concentration at which the activity of NQO1 was increased 2-fold. Each group consisted of 3 wells and indicated as a mean of CD values.

COC(=O)[C@]12CC[C@@](C)(CO)C[C@H]1[C@H]1C(=O)C=C3[C@@]4(C)[C@H]5O[C@@]5(C#N)C(=O)C(C)(C)[C@@H]4CC[C@@]3(C)[C@]1(C)CC2 [terpenoid derivative D]
cytotoxicity (LDH-Cytotoxic Test), mean (ARPE-19 cells): 1%
CD value (concentration at which the activity of NQO1 was increased 2-fold) (NQO1): 0.9 nM

CC1(C)C[C@H]2[C@H]3C(=O)C=C4[C@@]5(C)C6OC6(C#N)C(=O)C(C)(C)[C@@H]5CC[C@@]4(C)[C@]3(C)CC[C@@]2(C#N)CC1O (stereo partly shown) [terpenoid derivative F]
cytotoxicity (LDH-Cytotoxic Test), mean (ARPE-19 cells): 3%
CD value (concentration at which the activity of NQO1 was increased 2-fold) (NQO1): 0.1 nM

CC1(C)C[C@H]2[C@H]3C(=O)C=C4[C@@]5(C)C=C(C#N)C(=O)C(C)(C)[C@@H]5CC[C@@]4(C)[C@]3(C)CC[C@@]2(C#N)CC1O (stereo partly shown) [terpenoid derivative G]
cytotoxicity (LDH-Cytotoxic Test), mean (ARPE-19 cells): 3%
CD value (concentration at which the activity of NQO1 was increased 2-fold) (NQO1): 0.1 nM

CC1(C)CC(O)[C@]2(C(N)=O)CC[C@]3(C)[C@H](C(=O)C=C4[C@@]5(C)C6OC6(C#N)C(=O)C(C)(C)[C@@H]5CC[C@]43C)[C@@H]2C1 (stereo partly shown) [terpenoid derivative E]
cytotoxicity (LDH-Cytotoxic Test), mean (ARPE-19 cells): 2%
CD value (concentration at which the activity of NQO1 was increased 2-fold) (NQO1): 2.1 nM

COC(=O)[C@@]12CC[C@]3(C)[C@H](C(=O)C=C4[C@@]5(C)[C@H]6O[C@@]6(C#N)C(=O)C(C)(C)[C@@H]5CC[C@]43C)[C@@H]1CC(C)(C)C(=O)C2 [terpenoid derivative C]
cytotoxicity (LDH-Cytotoxic Test), mean (ARPE-19 cells): 2%
CD value (concentration at which the activity of NQO1 was increased 2-fold) (NQO1): 0.4 nM

COC(=O)[C@]12CCC(C)(C)C[C@H]1[C@H]1C(=O)C=C3[C@@]4(C)C5OC5(C#N)C(=O)C(C)(C)[C@@H]4CC(O)[C@@]3(C)[C@]1(C)CC2 (stereo partly shown) [terpenoid derivative H]
cytotoxicity (LDH-Cytotoxic Test), mean (ARPE-19 cells): 1%

COC(=O)[C@]12CC[C@](C)(CO)C[C@H]1[C@H]1C(=O)C=C3[C@@]4(C)[C@H]5O[C@@]5(C#N)C(=O)C(C)(C)[C@@H]4CC[C@@]3(C)[C@]1(C)CC2 [terpenoid derivative A]
cytotoxicity (LDH-Cytotoxic Test), mean (ARPE-19 cells): 2%
CD value (concentration at which the activity of NQO1 was increased 2-fold) (NQO1): 1.3 nM
